According to patent publication US20030212014A1 (priority 2000, published 2003):
Read-outs that look alike come from different tables or passages of the source.

Tested on: HUVEC
Type: cell-based, human
Experimental: As previously mentioned, AMPK increases fatty acid oxidation in both liver and skeletal muscle by phosphorylation and inhibition of acetyl CoA carboxylase. We wanted to test if this effect of AMPK is also present in endothelial cells. […] A significant decrease was seen within the first 30 minutes of incubation (FIG. 3). ACC activity went down from 163.1±27.0 pmol/min/mg protein at 0 minutes to 61.1±1.1 at 30 minutes (P=0.004), 73.0 ±12.4 at 60 minutes and 51.2±5.0 at 120 minutes (P=0.015). As previously described, ACC activation increases malonyl CoA levels and this in turn inhibits CPT1, the enzyme responsible for the uptake of long chain fatty acyl CoA into the mitochondria where they are oxidized. […] Fatty acid oxidation was measured by the formation of titrated water (^3H2O) in cells incubated with ^3H-palmitate. A significant increase was seen only after a 2-hour incubation (P=0.002). […] (See Table 1A, FIG. 6.) Glucose and fatty acid oxidation, glucose uptake and lactate and pyruvate release were determined in the absence and presence of […] carnitine.
To see if this also occurred in endothelial cells, glucose uptake was measured (Table 1).
In addition, lactate and pyruvate production were measured to see if the rate of glycolysis had changed.
This was not attributable to an increase in glucose oxidation. Glucose oxidation was measured by determining labeled CO2 production when the cells are incubated with ^14C-(U) glucose.
As a result their rate of oxidation can be greatly underestimated unless the tissue is prelabeled with fatty acid. […] Thus, when the HUVEC were pre-incubated with radioactive palmitate for 24 hours prior to ^14CO2 collection (to label the intracellular lipid pools), the measured rate of fatty acid oxidation was increased by 5 fold during the second hour of a two-hour incubation with radioactive palmitate added to the medium. […] (See Table 1A.)

`NC(=O)c1ncn([C@@H]2O[C@H](CO)[C@@H](O)[C@H]2O)c1N` [AICAR, 5-aminoimidizole-4-carboxamide riboside] was tested. Which fatty acid oxidation (50 pM carnitine added, 3H-palmitate, 2-hour incubation) did it give?
The fatty acid oxidation was “increased significantly”.

And the “glucose oxidation (labeled CO2 production)” value (14C-(U) glucose, after two hours)?
The value was “increased significantly”.

What about the lactate production (AICAR incubation, 2 hours) of the same molecule?
Its lactate production is “even more obvious decrease”.

What about the pyruvate production (AICAR incubation, 2 hours) of the same molecule?
Its pyruvate production is “slight, but significant decrease”.

And the “ATP generated accounted for by fatty acid oxidation” value (HUVEC incubated 2 hrs in 6 mM glucose with AICAR)?
Its value is roughly 40%.

And the fatty acid oxidation (absence of carnitine, 2 hours)?
The fatty acid oxidation was “did not show any changes”.

What about the “levels of ATP measured by bioluminescence” value (after AICAR incubation) of the same molecule?
Its value is “rose”.

What about the glucose uptake (during the AICAR incubation) of the same molecule?
The glucose uptake was “decreased”.

What about the “calculated rate of ATP generation” value (no prelabeling (Table 1)) of the same molecule?
Its value is “significantly diminished”.

And the “ATP generated accounted for by fatty acid oxidation” value (second hour of two-hour incubation, 24 hours prelabeling with palmitate, with AICAR)?
Its value is 60%.
